Experimental findings from ChEMBL document CHEMBL5052837, “Ghrelin o-acyltransferase inhibitors” (2019) are described below.

Calls of active or inactive are those of the source. The calls are words filed in the database; no cut-off is given here.

Experiment [1] concerns Mus musculus. In words: In vivo inhibition of GOAT in high fat, high carb (HFHC) diet-induced obesity model of C57BL/6 mouse assessed as increase in des-acyl ghrelin level at 3 mg/kg. It counts as functional, organism-based.
A short description of experiment [2]: In vivo inhibition of GOAT in high fat, high carb (HFHC) diet-induced obesity model of C57BL/6 mouse assessed as reduction in acyl ghrelin level at 3 mg/kg. Details: scale not given: the % may be the effect or the level left. It counts as functional.
Experiment [3] deals with Rattus norvegicus. In words: In vivo inhibition of GOAT in fasting rat assessed as reduction in acyl ghrelin level at 10 mg/kg. It counts as functional, organism-based.
The subject of experiment [4] is Mus musculus. The experiment in a line: In vivo inhibition of GOAT in fasting mouse assessed as reduction in acyl ghrelin level at 1 to 10 mg/kg, po administered twice a day for 2 days. The experiment is classed as functional, organism-based. The following applies: dose 1-10 mg/kg, time 2.0 day.
Experiment [5] deals with Mus musculus. The experiment in a line: In vivo inhibition of GOAT in high fat, high carb (HFHC) diet-induced obesity model of C57BL/6 mouse assessed as increase in des-acyl ghrelin level at 10 mg/kg. The experiment is classed as functional, organism-based.
In experiment [6] the test system is Rattus norvegicus. The experiment in a line: In vivo inhibition of GOAT in fasting rat assessed as increase in des-acyl ghrelin level at 10 mg/kg. It counts as functional, organism-based.

With `Cc1c(C(=O)NN2CCCCC2)nn(-c2ccc(Cl)cc2Cl)c1-c1ccc(Cl)cc1` [RIMONABANT], the outcome in the experiment on Mus musculus [1] was Active. In experiment [2], the Activity was 61%.
Turning to `O=C(O)Cc1csc2cc(O[C@H]3CCc4ncccc43)cc(Cl)c12`, the result in the experiment on Rattus norvegicus [3], in the experiment with Mus musculus [4], in the experiment on Mus musculus [5] and in the experiment on Rattus norvegicus [6] was Active.
